# How the values were obtained:
# Type in all cases: cell-based
# [1] = system: Caco-2 human colon epithelial cells; test: eGFP mRNA transfection, Caco-2 cells (96-well); conditions: ratio 1/2, 150 ng eGFP mRNA, 24 h
# Description: Caco-2 (ATCC® HTB-37™) human colon epithelial cells were grown in DMEM 4.5 g/L glucose with 20% FBS supplemented with 1% non-essential amino acids, 1 mM sodium pyruvate, 2 mM glutamine and 100 U/mL of penicillin and 100 μg/mL of streptomycin at 37° C. in a 5% CO2 in air atmosphere.
# (§1) mRNA eGFP (996 nt, reference L-6101) from TriLink Technologies was used for the in vitro transfection experiments and expressed enhanced green fluorescent protein which is a common reporter gene (eGFP). This mRNA was capped with a Cap 0, polyadenylated and modified with 5-methylcytidine and pseudo-uridine.
# (§2) One day before transfection, Caco-2, THP-1 or BJ Cells were seeded at 10 000, 25 000, or 5 000 cells per well (96-well plate format), respectively, in 125 μL of their respective complete medium and incubated at 37° C. in a 5% CO2 in air atmosphere. For Jurkat cells, 25 000 cells were seeded per well prior transfection. On the day of transfection 150 ng of mRNA was added in 11.5 μL of 5% glucose solution, mixed with a vortex and incubated for 5 minutes at rt. Then, 1 μL of 1 mM cationic liposomal formulation was added onto the diluted mRNA, mixed with a vortex and incubated for 15 minutes at rt. The formulated mRNA solution (12.5 μL) was added into the well and the plate was incubated for 24 hours at 37° C. in a 5% CO2 in air atmosphere.
# (§3) For the GFP expression analysis, the cell culture medium was removed for the adherent cells and 50 μL of trypsin-EDTA (1×, Lonza) was added and the plate was incubated for 5 minutes at 37° C. 150 μL of complete medium were added to neutralize the trypsin, and the GFP expression was analysed (2000 events) by flow cytometry (Exc 488 nm, Em 520 nm) using a Guava easyCyte 6HT cytometer (Millipore).
# (§4) All these new liposomal formulations (Table 1) were assessed to deliver mRNA expressing an enhanced green fluorescent protein (eGFP) as reporter gene in order to determine the gene expression and the transfection efficiency (Table 2). mRNA eGFP capped with a Cap 0 in 5′-end, polyadenylated in 3′-end and modified with 5-methylcytidine and pseudo-uridine was used in the transfection assay. The transfection assay was performed as described in the Experimental section where 150 ng of mRNA eGFP was complexed with 1 μL of 1 mM cationic liposomal formulations in a 5% glucose solution before the addition on the cells. One day post-transfection, the eGFP expression was analyzed by flow cytometry to determine the percentage of transfection. Four different cell lines were used in this assay from easy to transfect cells to hard to transfect cells with plasmid DNA, including human BJ skin fibroblast cells, THP-1 human peripheral blood monocytes, Caco-2 human colon epithelial cells and Jurkat Clone E6-1 human T lymphoblast cells, respectively.
# [2] = system: THP-1 human peripheral blood monocyte cells; test: eGFP mRNA transfection, THP-1 cells (96-well); conditions: ratio 1/2, 150 ng eGFP mRNA, 24 h
# Description: THP-1 (ATCC® TIB-202™) human peripheral blood monocyte cells were grown in RPMI-1640 with 10% FBS and supplemented with 10 mM HEPES buffer, 1 mM sodium pyruvate, 0.05 mM 2-mercaptoethanol, 2 mM glutamine, 100 U/mL of penicillin and 100 μg/mL of streptomycin at 37° C. in a 5% CO2 in air atmosphere.
# as §1, §2, §3, §4
# [3] = system: BJ human skin fibroblast cells; test: eGFP mRNA transfection, BJ cells (96-well); conditions: co-lipid DOPE, ratio 1/2; 150 ng eGFP mRNA; 24 h
# Description: BJ (ATCC® CRL-2522™) human skin fibroblast cells were grown in Eagle's Minimum Essential Medium with 10% FBS and supplemented with 1% non-essential amino acids, 1 mM sodium pyruvate, 2 mM glutamine and 100 U/mL of penicillin and 100 μg/mL of streptomycin at 37° C. in a 5% CO2 in air atmosphere.
# as §1, §2, §3, §4
# [4] = system: Jurkat Clone E6-1 human T lymphoblast cells; test: eGFP mRNA transfection, Jurkat cells (96-well); conditions: 150 ng eGFP mRNA, 24 h
# Description: Jurkat Clone E6-1 (ATCC® TIB-152™) human T lymphoblast cells were grown in RPMI-1640 (LONZA) with 10% of FBS (EUROBIO) and supplemented with 2 mM Glutamine (LONZA), 100 U/mL of penicillin and 100 μg/mL of streptomycin (LONZA) at 37° C. in a 5% CO2 in air atmosphere.
# as §1, §2, §3, §4
# [5] = co-lipid DOPE, ratio compound/co-lipid 1/2, 1 μL of 1 mM formulation, flow cytometry
Compound,Transfection efficiency (eGFP %) CaCO2 ([1]; co-lipid DOPE),Transfection efficiency (eGFP %) CaCO2 ([1]; co-lipid DPyPE),Transfection efficiency (eGFP %) THP-1 ([2]; co-lipid DOPE),Transfection efficiency (eGFP %) BJ [3],"Transfection efficiency (eGFP %) Jurkat [4, 5]",Transfection efficiency (eGFP %) THP-1 ([2]; co-lipid DPyPE),"Transfection efficiency (eGFP %) Jurkat ([4]; co-lipid DPyPE, ratio 1/2)","Transfection efficiency (eGFP %) Jurkat ([4]; co-lipid DPyPE, ratio 1/1.5)"
"CCCCCCC/C=C\CCCCCCCCC(CCCCCCCCCCCCCCCCCC)[n+]1ccn(C)c1.[Cl-] (stereo not shown) [Compound W3.5, 1-methyl-3-(hexatriacont-8-en-18-yl)-1H-imidazol-3-ium chloride]",35-40%,,35-45%,80-95%,10-15%,,,
"CCCCCCCCCCCCCCCCCCC(CCCCCCCCCCCCCCCCCC)CCCCC(CCCCCCCCCCCCCCCCCC)[n+]1ccn(C)c1.[Cl-] (stereo not shown) [Compound W13.7, 1-methyl-3-(24-octadecyldotetracontan-19-yl)-1H-imidazol-3-ium chloride]",75-80%,,80-85%,65-75%,10-20%,,,
"CCCCCCCC/C=C\CCCCCCCCC(CCCCC(CCCCCCCCCCCCCC)CCCCCCCCCCCCCC)[n+]1ccn(CCCC)c1.[Cl-] (stereo not shown) [Compound W20.7, 1-butyl-3-(24-tetradecyloctatriacont-9-en-19-yl)-1H-imidazol-3-ium chloride]",80-85%,,80-90%,90-95%,60-70%,65-80%,50-60%,
"CCCCCCCCCCCCCCC(CCCCCCCCCCCCCC)CCCCC(CCC(C)CCCC(C)C)[n+]1ccn(CCCC)c1.[Cl-] (stereo not shown) [Compound W22.7, 1-butyl-3-(2,6-dimethyl-14-tetradecyloctacosan-9-yl)-1H-imidazol-3-ium chloride]",,,70-80%,,50-60%,80-85%,40-55%,
"CCCCCCCCCCCCCCCCCCNC(CCCCCCCCCC)CCCC(CCCCCCCCCC)n1cc[n+](C)c1.Cl.[Cl-] (stereo not shown) [Compound W19.7, 1-methyl-3-(15-(octadecylammonio)pentacosan-11-yl)-1H-imidazol-3-ium chloride]",,,40-50%,,40-50%,,,
"CCCCCCCCCCCCCCCCCCC(CCCCCCCCCCCCCCCCCC)CCCCC(CCCCCC)[n+]1ccn(C)c1.[Cl-] (stereo not shown) [Compound W17.7, 1-methyl-3-(12-octadecyltriacontan-7-yl)-1H-imidazol-3-ium chloride]",,,70-75%,,30-35%,,,
"CCCCCCCCCCCCCCC(CCCCCCCCCCCCCC)CCCCC(CCCCC(CCCCCCCCCCCCCC)CCCCCCCCCCCCCC)[n+]1ccn(C)c1.[Cl-] [Compound W18.9, 1-methyl-3-(15,25-ditetradecylnonatriacontan-20-yl)-1H-imidazol-3-ium chloride]",,,80-85%,,25-30%,,,
"CCCCn1cc[n+](C(CCCCC(CCC(C)CCCC(C)C)CCC(C)CCCC(C)C)CCC(C)CCCC(C)C)c1.[Cl-] (stereo not shown) [Compound W23.7, 1-butyl-3-(14-(3,7-dimethyloctyl)-2,6,17,21-tetramethyldocosan-9-yl)-1H-imidazol-3-ium chloride]",,,,,,,,25-30%
"CCCCCCCCCCCCCCCCCCC(CCCCCCCCCCCCCCCCCC)CCCCC(CC1CCCCC1)[n+]1ccn(C)c1.[Cl-] (stereo not shown) [Compound W14.7, 1-methyl-3-(1-cyclohexyl-7-octadecylpentacosan-2-yl)-1H-imidazol-3-ium chloride]",,,55-65%,,25-35%,,,
"CCCCCCC/C=C\CCCCCCCCC(CCCCCCCC/C=C\CCCCCCCC)[n+]1ccn(C)c1.[Cl-] (stereo not shown) [Compound W8.7, 1-methyl-3-(hexatriaconta-8,27-dien-18-yl)-1H-imidazol-3-ium]",,,70-80%,80-85%,10-15%,,,
"CCCCCCCCCCCCCCCCCCC(CCCCCCCCCCCCCCCCCC)CCCCC(Cc1ccccc1)[n+]1ccn(C)c1.[Cl-] (stereo not shown) [Compound W15.7, 1-methyl-3-(7-octadecyl-1-phenylpentacosan-2-yl)-1H-imidazol-3-ium chloride]",,,55-70%,,25-30%,,,

# Further lines, with some results ahead:
Transfection efficiency (eGFP %) CaCO2 ([1]; co-lipid DOPE),Transfection efficiency (eGFP %) CaCO2 ([1]; co-lipid DPyPE),Compound,Transfection efficiency (eGFP %) THP-1 ([2]; co-lipid DOPE),Transfection efficiency (eGFP %) BJ [3],"Transfection efficiency (eGFP %) Jurkat [4, 5]",Transfection efficiency (eGFP %) THP-1 ([2]; co-lipid DPyPE),"Transfection efficiency (eGFP %) Jurkat ([4]; co-lipid DPyPE, ratio 1/2)","Transfection efficiency (eGFP %) Jurkat ([4]; co-lipid DPyPE, ratio 1/1.5)"
5-15%,,"CCCCCCCCCCCCCCCCCCC(CCCCCCCCCCCCCCCCC)C[n+]1ccn(C)c1.[Cl-] (stereo not shown) [Compound W7.4, 1-methyl-3-(2-heptadecylicosyl)-1H-imidazol-3-ium chloride]",40-50%,65-75%,5-15%,,,
65-75%,,"CCCCCCCC/C=C\CCCCCCCCC(CCCCC(CCCCCCCCCCCCCC)CCCCCCCCCCCCCC)[n+]1ccn(C)c1.[Cl-] (stereo not shown) [Compound W10.7, 1-methyl-3-(24-tetradecyloctatriacont-9-en-19-yl)-1H-imidazol-3-ium chloride]",70-80%,90-95%,25-30%,,,
5-10%,,CCCCCCC/C=C\CCCCCCCCC(CCCCCCCCCCCCCC)[n+]1ccn(C)c1 (stereo not shown) [Compound W2.5],70-75%,70-85%,1-5%,,,
15-20%,,"CCCCCCCCCCCCCCCCCCC(CCCCCCCCCCCCCCCCCC)CCCCC(CCC(C)CCCC(C)C)[n+]1ccn(C)c1.[Cl-] (stereo not shown) [Compound W16.7, 1-methyl-3-(2,6-dimethyl-14-octadecyldotriacontan-9-yl)-1H-imidazole-3-ium chloride]",75-80%,,35-40%,,,
15-25%,,"CCCCCCCC/C=C\CCCCCCCCC(CCCCCCCC/C=C\CCCCCCCC)[n+]1ccn(C)c1.[Cl-] [Compound W1.4, 1-methyl-3-(heptatriaconta-9,28-dien-19-yl)-1-methyl-1H-imidazol-3-ium chloride]",80-85%,80-95%,10-15%,,,
35-45%,,"CCCCCCCCCCCCCCCCCCC(CCCCC(CCCCCCCCCCCCCC)CCCCCCCCCCCCCC)[n+]1ccn(C)c1.[Cl-] (stereo not shown) [Compound W11.7, 1-methyl-3-(24-tetradecyloctatriacontan-19-yl)-1H-imidazol-3-ium chloride]",80-90%,90-95%,15-25%,,,
50-60%,60-70%,"CCCCCCCCCCCCCCCCCCC(CCCCCCCCCCCCCCCCCC)CCCCC(CCC(C)CCCC(C)C)[n+]1ccn(CCCC)c1.[Cl-] (stereo not shown) [Compound W21.7, 1-butyl-3-(2,6-dimethyl-14-octadecyldotriacontan-9-yl)-1H-imidazol-3-ium chloride]",70-80%,,40-50%,70-80%,55-65%,

# From patent US20210386841A1, “COMPOSITIONS FOR TRANSFECTING mRNA INTO A CELL AND THEIR APPLICATIONS” (POLYPLUS TRANSFECTION, priority 2018, published 2021)
